Test results: patent US7078059B2, “Treatment of bone diseases” (Shire Holdings AG, priority 2000, dated 2006)
Where “and” joins values, the source holds several entries; their conditions need not be identical. Identical values can stand only once.

Columns and labels:
[1] = tested on: limb bud mesodermal cells; conditions: organoid cultures; cited from earlier work
osteoclasts = conditions: extracellular application; cited from earlier work
[2] = tested on: iliac crest of growing immature dogs
Method: The specimens taken from the iliac crest of growing immature dogs were analysed. The group was divided into a control and treatment group. The treatment group received 1000 mg/Kg/day of lanthanum carbonate administered orally twice daily. The groups were run for 13 weeks, after which time samples of bone were taken vertically through the iliac crest, embedded in methyl methacrylate based resin, sectioned and stained with toluidine blue and Von Kossa stain.

[3] = tested on: osteoclasts cultured on bone slices; assay: In vitro bone resorption assay (osteoclasts on bovine bone slices, CrossLaps); format: cell-based, rat; conditions: for Bone resorption: significance of activation/inhibition vs baseline; for Effect on bone resorption / bone resorbing activity of mature osteoclasts, in words / Relative medium CrossLaps amounts per osteoclast, Mean ± SD / Relative medium CrossLaps amounts per osteoclasts, Mean ± SD / Relative medium CrossLaps amounts per osteoclasts, replicates 1-6 / Combined results on bone resorption (relative medium CrossLaps per osteoclast), Mean ± SD: LA number = ng/ml lanthanum; for Effect on bone resorption / bone resorbing activity of mature osteoclasts, in words: lanthanum (III) ion = any of the concentrations tested (100-15000 ng/ml), bafilomycin Al 10 nM; for Relative medium CrossLaps amounts per osteoclast, replicates 1-6 / Relative medium CrossLaps amounts per osteoclast, Mean ± SD: first bone resorption assay; for Relative medium CrossLaps amounts per osteoclast, replicates 1-6 / Relative medium CrossLaps amounts per osteoclast, Mean ± SD / Relative medium CrossLaps amounts per osteoclasts, Mean ± SD / Relative medium CrossLaps amounts per osteoclasts, replicates 1-6: relative to mean of baseline group, 72 hours; for Relative medium CrossLaps amounts per osteoclast, replicates 1-6: LA number = ng/ml lanthanum in culture medium; for Relative medium CrossLaps amounts per osteoclast, replicates 1-6 / Relative medium CrossLaps amounts per osteoclast, Mean ± SD / Relative medium CrossLaps amounts per osteoclasts, Mean ± SD / Relative medium CrossLaps amounts per osteoclasts, replicates 1-6 / Combined results on bone resorption (relative medium CrossLaps per osteoclast), Mean ± SD: Control = Baseline+10 nM bafilomycin Al; for Relative medium CrossLaps amounts per osteoclasts, Mean ± SD / Relative medium CrossLaps amounts per osteoclasts, replicates 1-6: second bone resorption assay; for Combined results on bone resorption (relative medium CrossLaps per osteoclast), Mean ± SD: tables 1 and 2 combined, number 12
From the text: The method of osteoclast culture on bone slices was originally described by Boyde et al. (1984) and by Chambers et al. (1984). For cell culture, we used a method slightly modified from the original methods (Lakkakorpi et al. 1989, Lakkakorpi and Väänänen, 1991). The rate of bone resorption in the cultures was originally determined by counting the number of resorption pits on each bone or dentine slice using a microscope with phase contrast objectives (Sundquist et al. 1990). Later, the pits were visualized using Wheat Germ Agglutinin lectin that specifically binds to the resorbed area in bone (Selander et al. 1994), making it possible to quantify the total resorbed area using a microscope and computer-assisted image analysis system (Laitala and Väänänen 1994, Hentunen et al. 1995). We used a commercially available method (CrossLaps for cultures, Osteometer Biotech, Herlev, Denmark) to detect the amount of collagen cross-links released into the culture medium as an index of the bone resorption rate (Bagger et al., 1999).
The study protocol uses a method where osteoclasts are cultured on bone slices and allowed to resorb bone. The system is ideal for determining the effect of drug candidates on the bone resorbing activity of osteoclasts. Drug candidates are added into the cell cultures at the beginning of the culture period, and the osteoclasts allowed to resorb bone for 3 days. The amount of bone resorbed during the culture period is determined and compared to the amount of bone resorbed in control cultures (those cultured in the absence of drug candidates).
Transverse 0.1 mm thick slices of cortical bone were cut from the diaphysis of fresh bovine femurs (Atria Slaughterhouse, Oulu, Finland) using a low-speed diamond saw, cleaned by ultrasonication in multiple changes of sterile distilled water, and stored at 4° C. before use. Long bones were removed from 1-day-old rat pups killed by decapitation. […] The resulting suspension of dispersed cells and bone fragments was agitated using a plastic pipette. Larger fragments were allowed to sediment for a few seconds and the supernatant was seeded onto the bone slices pre-wetted in the medium. After a settling period of 30 minutes at 37° C., the bone slices were washed by dipping in fresh medium, and then transferred to wells in 24-well culture dishes containing osteoclast culture medium. The bone slices were incubated in a humidified atmosphere of 95% air and 5% carbon dioxide at 37° C. for 72 hours.
After the culture period, the amount of bone resorption was determined by measuring the amount of collagen cross-links released into the culture medium using a commercial kit (CrossLaps for cultures, Osteometer Biotech) according to the manufacturer s instructions. The number of osteoclasts in each culture was determined by microscopic counting of the amount of TRAP-positive multinuclear cells, and the results are given as the number of collagen cross-links released per one osteoclast.
In the bone resorption assay, the amount of medium CrossLaps (nM) released into the culture medium was determined and the number of osteoclasts in the corresponding cultures calculated. The medium CrossLaps amounts were divided with the osteoclast numbers in the corresponding cultures, and the results are given on Table 1 as relative medium CrossLaps amounts per osteoclasts. The relative values were obtained by dividing each individual value with the mean value of the baseline group.

SMILES | Relative medium CrossLaps amounts per osteoclast, replicates 1-6 [3] | Relative medium CrossLaps amounts per osteoclast, Mean ± SD [3] | Relative medium CrossLaps amounts per osteoclasts, Mean ± SD [3] | Relative medium CrossLaps amounts per osteoclasts, replicates 1-6 [3] | Combined results on bone resorption (relative medium CrossLaps per osteoclast), Mean ± SD [3] | Effect on bone resorption / bone resorbing activity of mature osteoclasts, in words [3] | also measured
O.O.O.O.O=C([O-])[O-].O=C([O-])[O-].O=C([O-])[O-].[La+3].[La+3] [LA, lanthanum carbonate tetrahydrate] |  |  |  |  |  |  | Calcium accumulation [1]: reduced calcium accumulation; Endochondral mineralization [1]: inhibited endochondral mineralization; Cytosolic calcium in osteoclasts (osteoclasts): concentration-dependant elevation of cytosolic calcium; Bone formation in growing dogs ([2]; dose of 2,000 mg/kg/day lanthanum): enhanced bone formation; Bone volume and density compared to control animals ([2]; growing dogs, dose of 2,000 mg/kg/day lanthanum): significant increase; Other bone parameters investigated, treated vs control group ([2]; growing immature dogs, 1000 mg/Kg/day of lanthanum carbonate orally twice daily, 13 weeks, iliac crest): no statistically significant difference; Effect on amount of CrossLaps released into the culture medium or on the osteoclast number, in words ([3]; 100-15000 ng/ml lanthanum): no significant effect; Bone resorption ([3]; Dose 100 ng/ml): 0; Bone resorption ([3]; Dose 500 ng/ml): 0; Bone resorption ([3]; Dose 1000 ng/ml): 0; Bone resorption ([3]; Dose 5000 ng/ml): 0; Bone resorption ([3]; Dose 15000 ng/ml): 0; Effect on bone resorption / bone resorbing activity of mature osteoclasts, in words ([3]; listed as lanthanum): Some inhibition of bone resorption; Effect on bone resorption / bone resorbing activity of mature osteoclasts, in words ([3]; listed as lanthanum (III) ion): no statistically significant effects
O.O.O.O.O=C([O-])[O-].O=C([O-])[O-].O=C([O-])[O-].[La+3].[La+3] [LA 5000, lanthanum carbonate tetrahydrate] | 1.39 and 0.78 and 2.70 and 1.18 and 0.76 and 1.21 | 1.34 ± 0.71 | 1.20 ± 0.59 | 0.48 and 1.18 and 0.77 and 0.98 and 1.99 and 1.81 | 1.27 ± 0.63 |  | 
O.O.O.O.O=C([O-])[O-].O=C([O-])[O-].O=C([O-])[O-].[La+3].[La+3] [LA 500, lanthanum carbonate tetrahydrate] | 1.04 and 0.58 and 1.38 and 0.75 and 0.88 and 0.63 | 0.88 ± 0.30 | 0.88 ± 0.65 | 0.50 (2×) and 2.14 and 1.03 and 0.47 and 0.63 | 0.88 ± 0.48 | dose-dependent inhibition of bone resorption | 
O.O.O.O.O=C([O-])[O-].O=C([O-])[O-].O=C([O-])[O-].[La+3].[La+3] [LA 100, lanthanum carbonate tetrahydrate] | 0.57 and 0.56 and 1.13 and 0.78 and 0.71 (2×) | 0.74 ± 0.21 | 0.74 ± 0.21 | 0.38 and 0.75 and 0.78 and 0.94 and 0.67 and 0.96 | 0.74 ± 0.20 |  | 
O.O.O.O.O=C([O-])[O-].O=C([O-])[O-].O=C([O-])[O-].[La+3].[La+3] [LA 15000, lanthanum carbonate tetrahydrate] | 0.57 (2×) and 0.58 and 0.96 and 2.53 and 1.11 | 1.05 ± 0.76 | 0.63 ± 0.29 | 0.29 and 1.08 and 0.62 and 0.87 and 0.47 and 0.45 | 0.84 ± 0.59 | slight decrease | 
O.O.O.O.O=C([O-])[O-].O=C([O-])[O-].O=C([O-])[O-].[La+3].[La+3] [LA 1000, lanthanum carbonate tetrahydrate] | 1.14 and 1.09 and 0.89 and 1.76 and 1.07 and 1.11 | 1.18 ± 0.30 | 1.13 ± 0.51 | 0.70 and 0.59 and 1.69 and 1.40 and 1.68 and 0.73 | 1.15 ± 0.40 |  | 
